Source: patent US7370953B2, “Inkjet recording ink” (FUJIFILM Corporation, priority 2003, dated 2008)

How the values were obtained:
[1] = Oxidation potential of dye (vs SCE); assay type: physicochemical; conditions: comparative dyes; method not stated
Experimental: The value of oxidation potential (Eox) can be easily measured by those skilled in the art.
In some detail, for the measurement of oxidation potential, the test specimen is dissolved in a solvent such as dimethyl formamide and acetonitrile containing a supporting electrolyte such as sodium perchlorate and tetrapropylammonium perchlorate in a concentration of from […] to 1×10^−6 mol/l. The solution is then measured for oxidation potential with respect to SCE (saturated calomel electrode) by cyclic voltametry or DC polarography, etc. This value may deviate by a few tens of millivolts when affected by the difference in potential between liquids or the resistivity of sample solution, but the reproducibility of potential can be assured by putting a standard sample (e.g., hydroquinone) in the sample solution.
In order to unequivocally define oxidation potential, in the present invention, the value (vs SCE) measured in dimethyl formamide containing 0.1 mol dm^−3 of tetrapropylammonium perchlorate as a supporting electrolyte (dye concentration: 0.001 mol dm^−3) is defined as oxidation potential of dye.

[2] = Absorption spectrum of dye; assay type: physicochemical; conditions: comparative dyes; ratio as printed
Source text: To this end, the dye to be used in the invention preferably is a yellow dye having a λmax at a wavelength range of from 390 nm to 470 nm and a I(λmax+70 nm)/I(λmax) ratio of not greater than 0.2, more preferably not greater than 0.1 in which I(λmax) is the absorbance at λmax and I(λmax+70 nm) is the absorbance at λmax+70 nm. Ideally speaking, the lower limit of the ratio is 0. In actuality, however, the lower limit of the ratio is about 0.01.

Compound	oxidation potential [1]	I(λmax)/I(λmax+70 nm) ratio [2]
Cc1nn(-c2ccc(S(=O)(=O)[O-])cc2)c(O)c1/N=N/c1cccc(S(=O)(=O)Nc2cc(C(=O)[O-])cc(C(=O)[O-])c2)c1.[K+].[K+].[K+] [Yellow dye (C)]	≤ 1.0 V (vs SCE)	≤ 0.4
Direct Yellow 11 [Yellow dye (D)]	≤ 1.0 V (vs SCE)	greater than 0.4
